{"source": "ChEMBL document CHEMBL4371026", "about": "“Prodrugs of the cancer cell selective anti-cancer agent (Z)-2-(1H-indol-3-yl)-3-(isoquinolin-5-yl)acrylonitrile (A131) are orally efficacious in a mouse model of resistant colon cancer” (Bioorg Med Chem Lett, 2019)", "key": {"BJ [1]": {"tested_on": "BJ", "assay": "Induction of autophagy in transformed human BJ cells assessed as increase in LC3-2 to LC3-1 ratio at 5 uM after 24 hrs by Western blot analysis relative to control", "type": "functional"}, "BJ [2]": {"tested_on": "BJ", "assay": "Induction of mitosis in transformed human BJ cells assessed as increase in pH3 Ser10 expression at 5 uM after 24 hrs by Western blot analysis relative to control", "type": "functional"}, "HCT-15 [3]": {"tested_on": "HCT-15", "assay": "Anticancer activity against paclitaxel-resistant human HCT15 cells xenografted in BALB/c athymic mouse assessed as tumor volume at 40 mg/kg, ip administered twice a day for 12 days measured on day 1 (reference value: 110 +/- 11 mm3)", "type": "functional"}, "[4]": {"assay": "Solubility of the compound in 10%DMSO/50%PEG400/40%H2O", "type": "physicochemical"}, "HCT-15 [5]": {"tested_on": "HCT-15", "assay": "Anticancer activity against paclitaxel-resistant human HCT15 cells xenografted in BALB/c athymic mouse assessed as tumor volume at 80 mg/kg, po administered twice a day for 12 days measured on day 9 (reference value: 546 +/- 87 mm3)", "type": "functional"}, "HCT-15 [6]": {"tested_on": "HCT-15", "assay": "Anticancer activity against paclitaxel-resistant human HCT15 cells xenografted in BALB/c athymic mouse assessed as tumor volume at 40 mg/kg, ip administered twice a day for 12 days measured on day 9 (reference value: 546 +/- 87 mm3)", "type": "functional"}, "HCT-15 [7]": {"tested_on": "HCT-15", "assay": "Anticancer activity against paclitaxel-resistant human HCT15 cells xenografted in BALB/c athymic mouse assessed as tumor volume at 40 mg/kg, ip administered twice a day for 12 days measured on day 7 (reference value: 495 +/- 109 mm3)", "type": "functional"}, "HCT-15 [8]": {"tested_on": "HCT-15", "assay": "Anticancer activity against paclitaxel-resistant human HCT15 cells xenografted in BALB/c athymic mouse assessed as tumor volume at 40 mg/kg, ip administered twice a day for 12 days measured on day 5 (reference value: 329 +/- 45 mm3)", "type": "functional"}, "HCT-15 [9]": {"tested_on": "HCT-15", "assay": "Anticancer activity against paclitaxel-resistant human HCT15 cells xenografted in BALB/c athymic mouse assessed as tumor volume at 80 mg/kg, po administered twice a day for 12 days measured on day 5 (reference value: 329 +/- 45 mm3)", "type": "functional"}, "HCT-15 [10]": {"tested_on": "HCT-15", "assay": "Anticancer activity against paclitaxel-resistant human HCT15 cells xenografted in BALB/c athymic mouse assessed as tumor volume at 40 mg/kg, ip administered twice a day for 12 days measured on day 3 (reference value: 180 +/- 36 mm3)", "type": "functional"}, "HCT-15 [11]": {"tested_on": "HCT-15", "assay": "Anticancer activity against paclitaxel-resistant human HCT15 cells xenografted in BALB/c athymic mouse assessed as tumor volume at 80 mg/kg, po administered twice a day for 12 days measured on day 12 (reference value: 779 +/- 144 mm3)", "type": "functional"}, "HCT-15 [12]": {"tested_on": "HCT-15", "assay": "Anticancer activity against paclitaxel-resistant human HCT15 cells xenografted in BALB/c athymic mouse assessed as tumor volume at 80 mg/kg, po administered twice a day for 12 days measured on day 7 (reference value: 495 +/- 109 mm3)", "type": "functional"}, "HCT-15 [13]": {"tested_on": "HCT-15", "assay": "Anticancer activity against paclitaxel-resistant human HCT15 cells xenografted in BALB/c athymic mouse assessed as tumor volume at 40 mg/kg, ip administered twice a day for 12 days measured on day 12 (reference value: 779 +/- 144 mm3)", "type": "functional"}, "HCT-15 [14]": {"tested_on": "HCT-15", "assay": "Anticancer activity against paclitaxel-resistant human HCT15 cells xenografted in BALB/c athymic mouse assessed as tumor growth inhibition at 80 mg/kg, po administered twice a day for 12 days relative to control", "type": "functional", "details": "HCT-15, po, 288 h, read-out: TGI"}, "HCT-15 [15]": {"tested_on": "HCT-15", "assay": "Anticancer activity against paclitaxel-resistant human HCT15 cells xenografted in BALB/c athymic mouse assessed as tumor volume at 80 mg/kg, po administered twice a day for 12 days measured on day 3 (reference value: 180 +/- 36 mm3)", "type": "functional"}, "HCT-15 [16]": {"tested_on": "HCT-15", "assay": "Anticancer activity against paclitaxel-resistant human HCT15 cells xenografted in BALB/c athymic mouse assessed as tumor volume at 80 mg/kg, po administered twice a day for 12 days measured on day 1 (reference value: 110 +/- 11 mm3)", "type": "functional"}, "[17]": {"assay": "Prodrug conversion in pH 7.4 10% FBS assessed as formation of A131 measured at 3 hrs by LC-MS/MS analysis relative to parent compound", "type": "ADME", "details": "cattle, pH 7.4, 3 h"}, "[18]": {"assay": "Half life in simulated gastric fluid TS", "type": "ADME"}, "[19]": {"assay": "Prodrug conversion in pH 7.4 10% FBS assessed as formation of A131 measured at 1 hr by LC-MS/MS analysis relative to parent compound", "type": "ADME", "details": "cattle, pH 7.4, 1 h"}, "[20]": {"assay": "Prodrug conversion in pH 7.4 10% FBS assessed as formation of A131 by measuring apparent half life", "type": "ADME", "details": "cattle"}, "[21]": {"assay": "Stability in simplified simulated gastric fluid assessed as parent compound remaining at 24 hrs", "type": "ADME", "details": "read-out: Stability"}, "[22]": {"assay": "Stability in human plasma assessed as compound hydrolysis measured within 15 mins", "type": "ADME, cell-free", "details": "read-out: Drug degradation"}, "[23]": {"assay": "Stability in simulated gastric fluid TS assessed as parent compound remaining at 24 hrs", "type": "ADME", "details": "read-out: Stability"}, "[24]": {"assay": "Stability in acidic pH assessed as compound hydrolysis", "type": "physicochemical"}, "[25]": {"assay": "Prodrug conversion in pH 7.4 phosphate buffer saline assessed as formation of A131 by measuring apparent half life", "type": "ADME"}, "[26]": {"assay": "Prodrug conversion in pH 7.4 10% FBS assessed as formation of A131 measured at 6 hrs by LC-MS/MS analysis relative to parent compound", "type": "ADME", "details": "cattle, pH 7.4, 6 h"}, "[27]": {"assay": "Half life in simplified simulated gastric fluid", "type": "ADME"}, "[28]": {"assay": "Prodrug conversion in pH 7.4 10% FBS assessed as formation of A131 measured at 2 hrs by LC-MS/MS analysis relative to parent compound", "type": "ADME", "details": "cattle, pH 7.4, 2 h"}, "[29]": {"assay": "Prodrug conversion in mouse plasma assessed as formation of A131 by measuring apparent half life", "type": "ADME, cell-free"}, "[30]": {"assay": "Prodrug conversion in human plasma assessed as formation of A131 by measuring apparent half life", "type": "ADME, cell-free"}}}
{"compound": "N#C/C(=C\\c1cccc2cnccc12)c1cn(C(=O)CCN)c2ccccc12", "values": [{"measurement": "fold change (FC)", "setting": "BJ [1]", "value": 4.1}, {"measurement": "fold change (FC)", "setting": "BJ [2]", "value": 2.1}]}
{"compound": "CN1CCN(CC(=O)n2cc(/C(C#N)=C/c3cccc4cnccc34)c3ccccc32)CC1.O=C(O)C(F)(F)F", "values": [{"measurement": "Activity", "setting": "HCT-15 [3]", "value": 100, "unit": "mm3"}, {"measurement": "solubility", "setting": "[4]", "value": 8000, "unit": "µg/mL"}, {"measurement": "Activity", "setting": "HCT-15 [5]", "value": 209, "unit": "mm3"}, {"measurement": "Activity", "setting": "HCT-15 [6]", "value": 196, "unit": "mm3"}, {"measurement": "Activity", "setting": "HCT-15 [7]", "value": 171, "unit": "mm3"}, {"measurement": "Activity", "setting": "HCT-15 [8]", "value": 199, "unit": "mm3"}, {"measurement": "Activity", "setting": "HCT-15 [9]", "value": 143, "unit": "mm3"}, {"measurement": "Activity", "setting": "HCT-15 [10]", "value": 109, "unit": "mm3"}, {"measurement": "Activity", "setting": "HCT-15 [11]", "value": 258, "unit": "mm3"}, {"measurement": "Activity", "setting": "HCT-15 [12]", "value": 165, "unit": "mm3"}, {"measurement": "Activity", "setting": "HCT-15 [13]", "value": 244, "unit": "mm3"}, {"measurement": "inhibition in vivo at 80 mg/kg", "setting": "HCT-15 [14]", "value": "75.8 to 76", "unit": "%"}, {"measurement": "Activity", "setting": "HCT-15 [15]", "value": 95, "unit": "mm3"}, {"measurement": "Activity", "setting": "HCT-15 [16]", "value": 96, "unit": "mm3"}]}
{"compound": "CN1CCN(CC(=O)n2cc(/C(C#N)=C/c3cccc4cnccc34)c3ccccc32)CC1", "values": [{"measurement": "fold change (FC)", "setting": "[17]", "value": 8.39}, {"measurement": "half-life", "setting": "[18]", "value": 24, "unit": "h"}, {"measurement": "fold change (FC)", "setting": "[19]", "value": 4.68}, {"measurement": "t1/2(app)", "setting": "[20]", "value": 0.9, "unit": "h"}, {"measurement": "fold change (FC)", "setting": "BJ [1]", "value": 5}, {"measurement": "remaining at 24 h", "setting": "[21]", "value": 50, "unit": "%"}, {"measurement": "metabolised at 0.25 h", "setting": "[22]", "value": "> 90", "unit": "%"}, {"measurement": "remaining at 24 h", "setting": "[23]", "value": 50, "unit": "%"}, {"measurement": "Stability", "setting": "[24]", "value": "Stable"}, {"measurement": "t1/2(app)", "setting": "[25]", "value": 5.3, "unit": "h"}, {"measurement": "fold change (FC)", "setting": "[26]", "value": 8.84}, {"measurement": "half-life", "setting": "[27]", "value": 24, "unit": "h"}, {"measurement": "fold change (FC)", "setting": "[28]", "value": 7.51}, {"measurement": "t1/2(app)", "setting": "[29]", "value": 0.088, "unit": "h"}, {"measurement": "fold change (FC)", "setting": "BJ [2]", "value": 11.8}, {"measurement": "t1/2(app)", "setting": "[30]", "value": 3.42, "unit": "min"}]}
{"compound": "CS(=O)(=O)n1cc(/C(C#N)=C/c2cccc3cnccc23)c2ccccc21", "values": [{"measurement": "fold change (FC)", "setting": "BJ [1]", "value": 0.8}, {"measurement": "fold change (FC)", "setting": "BJ [2]", "value": 0.4}]}
{"compound": "CN1CCN(C(=O)Cn2cc(/C(C#N)=C/c3cccc4cnccc34)c3ccccc32)CC1", "values": [{"measurement": "fold change (FC)", "setting": "BJ [1]", "value": 1.9}, {"measurement": "fold change (FC)", "setting": "BJ [2]", "value": 1.3}]}
{"compound": "N#C/C(=C\\c1cccc2cnccc12)c1cn(C(=O)C2CCNCC2)c2ccccc12", "values": [{"measurement": "fold change (FC)", "setting": "[17]", "value": 14.48}, {"measurement": "half-life", "setting": "[18]", "value": "> 24", "unit": "h"}, {"measurement": "fold change (FC)", "setting": "[19]", "value": 7.03}, {"measurement": "t1/2(app)", "setting": "[20]", "value": 1.14, "unit": "h"}, {"measurement": "fold change (FC)", "setting": "BJ [1]", "value": 7.3}, {"measurement": "remaining at 24 h", "setting": "[21]", "value": 75, "unit": "%"}, {"measurement": "metabolised at 0.25 h", "setting": "[22]", "value": "> 90", "unit": "%"}, {"measurement": "remaining at 24 h", "setting": "[23]", "value": 75, "unit": "%"}, {"measurement": "Stability", "setting": "[24]", "value": "Stable"}, {"measurement": "t1/2(app)", "setting": "[25]", "value": 2.58, "unit": "h"}, {"measurement": "fold change (FC)", "setting": "[26]", "value": 16.5}, {"measurement": "half-life", "setting": "[27]", "value": "> 24", "unit": "h"}, {"measurement": "fold change (FC)", "setting": "[28]", "value": 13.17}, {"measurement": "t1/2(app)", "setting": "[29]", "value": 0.208, "unit": "h"}, {"measurement": "fold change (FC)", "setting": "BJ [2]", "value": 10.1}, {"measurement": "t1/2(app)", "setting": "[30]", "value": 4.2, "unit": "min"}]}
{"compound": "N#C/C(=C\\c1cccc2cnccc12)c1c[nH]c2ccccc12", "values": [{"measurement": "fold change (FC)", "setting": "BJ [1]", "value": 5}, {"measurement": "fold change (FC)", "setting": "BJ [2]", "value": 7.3}]}
{"compound": "CC(C)(C)OC(=O)NCCC(=O)n1cc(/C(C#N)=C/c2cccc3cnccc23)c2ccccc21", "values": [{"measurement": "fold change (FC)", "setting": "BJ [1]", "value": 3.9}, {"measurement": "fold change (FC)", "setting": "BJ [2]", "value": 4.8}]}
{"compound": "COCCOCC(=O)n1cc(/C(C#N)=C/c2cccc3cnccc23)c2ccccc21", "values": [{"measurement": "fold change (FC)", "setting": "BJ [1]", "value": 4.1}, {"measurement": "fold change (FC)", "setting": "BJ [2]", "value": 12.8}]}
